In patent US20070048738A1, “Methods and compositions for diagnosis, staging and prognosis of prostate cancer” (Mayo Foundation for Medical Education and Research, priority 2003, published 2007):

Experiments:
[1] = test system: ZNF185 5′ CpG dinucleotides of genomic DNA; assay: Methylation specific PCR (MSP) of ZNF185 DNA in prostate cell lines with or without 5-Aza-CdR; format: cell-based, human; conditions: prostate cancer cell lines with 5-Aza-CdR treatment versus without
Method: DNA isolation and Bisulfite modification. Genomic DNA was obtained from metastatic, primary, matched benign prostatic tissues and the above mentioned prostate cancer cell lines treated with 5-Aza-CdR, using Wizard® genomic DNA purification kit according to the manufacturer's protocol (Promega, Madison, Wis.). Genomic DNA (100 ng) was modified by sodium bisulfite treatment by converting unmethylated, but not methylated, cytosines to uracil as described previously (Herman et al., Proc. Natl. Acad. Sci. USA 93:9821-9826, 1996). DNA samples were then purified using the spin columns (Qiagen), and eluted in 50 μl of distilled water. Modification was completed by treatment with NaOH (0.3 M final concentration) for 5 min at room temperature, followed by ethanol precipitation. […]
Methylation Specific PCR (MSP). DNA methylation patterns within the gene were determined by chemical modification of unmethylated cytosine to uracil and subsequent PCR as described previously (Esteller et al., Cancer Res. 61:3225-3229, 2001), using primers specific for either methylated or the modified unmethylated sequences.
Two sets of primers were designed corresponding to the genomic positions around 210 and 335. […] One (1) μl of the PCR product was directly loaded onto DNA 500 lab chip and analyzed on Agilent 2100 Bioanalyzer (Agilent Technologies, Palo Alto, Calif.).

[2] = test system: ZNF185; assay: ZNF185 mRNA expression in prostate cancer cell lines after 5-Aza-CdR treatment (Taqman real-time PCR); format: cell-based, human; conditions: LAPC4, LNCaP and PC3 prostate cancer cell lines; 6 μM 5-Aza-CdR for 6 days; versus untreated cells
[3] = test system: SVIL; assay: SVIL mRNA expression in prostate cancer cell lines after 5-Aza-CdR treatment (TaqMan real-time PCR); conditions: 6 μM 5-Aza-CdR for 6 days
[4] = test system: TU3A; assay: TU3A mRNA expression in prostate cancer cell lines after 5-Aza-CdR treatment (TaqMan real-time PCR); conditions: 6 μM 5-Aza-CdR for 6 days
[5] = test system: PRIMA1; assay: PRIMA1 mRNA expression in prostate cancer cell lines after 5-Aza-CdR treatment (TaqMan real-time PCR); conditions: 6 μM 5-Aza-CdR for 6 days
[6] = test system: FLJ14084; assay: FLJ14084 mRNA expression in prostate cancer cell lines after 5-Aza-CdR treatment (TaqMan real-time PCR); conditions: all three prostate cancer cells (LAPC4, LNCaP, PC3); 6 μM 5-Aza-CdR for 6 days
[7] = test system: KIAA1210; assay: KIAA1210 mRNA expression in prostate cancer cell lines after 5-Aza-CdR treatment (TaqMan real-time PCR); conditions: LAPC4 and LNCaP cells; 6 μM 5-Aza-CdR for 6 days

Nc1ncn([C@H]2C[C@H](O)[C@@H](CO)O2)c(=O)n1 [5-Aza-CdR, 5-aza-2′-deoxycytidine]
methylated and unmethylated ZNF185 bands by MSP [1]: reduction of the methylated band and increase of the unmethylated band
increase in mRNA levels of ZNF185 [2]: ~2.0 fold
expression of SVIL mRNA levels ([3]; LACaP cells (so in the source)): not in LACaP
expression of SVIL mRNA levels ([3]; LAPC4 and PC3 cells): significant increase
TU3A expression levels ([4]; LAPC4 and PC3 cells): not in LAPC4 and PC3 cells
TU3A expression levels ([4]; LNCaP cells): significantly increased
expression of PRIMA1 mRNA levels ([5]; LACaP cells (so in the source)): not in LACaP
expression of PRIMA1 mRNA levels ([5]; LAPC4 and PC3 cells): significant increase
expression of FLJ14084 mRNA levels [6]: significant increase
KIAA1210 mRNA levels [7]: increased
